Structures can show the parent of a compound that is named as a salt. Where two headings read alike, the source gives them in different places.
Target: T1, IRAK4 (Homo sapiens, UniProt Q9NWZ3)
T1 sequence (Q9NWZ3 1-460): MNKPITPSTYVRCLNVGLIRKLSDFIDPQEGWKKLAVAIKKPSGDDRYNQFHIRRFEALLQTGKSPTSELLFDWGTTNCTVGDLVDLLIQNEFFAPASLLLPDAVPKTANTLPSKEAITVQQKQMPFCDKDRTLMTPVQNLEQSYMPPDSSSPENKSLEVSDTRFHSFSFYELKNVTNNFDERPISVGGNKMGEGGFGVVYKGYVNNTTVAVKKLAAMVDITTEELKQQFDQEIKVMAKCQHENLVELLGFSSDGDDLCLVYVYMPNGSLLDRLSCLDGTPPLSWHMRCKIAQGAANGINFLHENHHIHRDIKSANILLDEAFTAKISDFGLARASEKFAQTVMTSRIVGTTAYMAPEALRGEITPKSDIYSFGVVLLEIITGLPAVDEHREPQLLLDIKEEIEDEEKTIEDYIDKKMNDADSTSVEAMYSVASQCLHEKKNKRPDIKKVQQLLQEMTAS
Assay: biochemical

[1] = IRAK4 Biochemical Assay (1 mM ATP, 2 h) IC50 (μM), 1 mM ATP, 2 h, 100 pM IRAK4

Description: The 2-hour 10 μM ATP Biochemical Assay employs a MesoScale Detection (MSD) format.
The activity is quenched with 11 μl of 70 mM EDTA, pH 8.
To detect the phosphorylated biotinylated peptide substrate, 30 μl of the quenched reaction mixture is added to equivalent wells of a 384 well streptavidin coated MesoScale plate (Meso Scale Discovery #L21SA-1). After a 1 hour incubation of the plate for 1 hour at room temperature with gentle mixing, the plate wells are washed 3 times with 50 mM Tris, pH 7.5, 150 mM NaCl, 0.02% Tween-20.
A 25 μl volume of 1:500 anti-P-Threonine Rabbit polyclonal Antibody plus 1:500 Goat-anti-Rabbit Sulfo Tag Antibody (Meso Scale Discovery R32AB-1) in 50 mM Tris, pH 7.5, 150 mM NaCl, 0.02% Tween-20 plus 2% BSA is then added to each well. After a 1-hour incubation of the plate for 1 hour at room temperature with gentle mixing, the plate wells are washed, 3 times with 50 mM Tris, pH 7.5, 150 mM NaCl, 0.02% Tween-20.
The 2-hour 1 mM ATP IRAK4 Biochemical assay was performed as described above, but with 100 pM IRAK4 and 1 mM ATP.

CC[C@@H](C)Oc1cc2nc(C34COC(C)(C3)C4)cn2cc1C(=O)Nc1cnn2cc(C)cnc12 [Example 560]
IC50: 0.0012 µM

CC(C)Oc1nc2nc(C34COC(C)(C3)C4)cn2cc1C(=O)Nc1snc2cccnc12 [Example 376, 7-Isopropoxy-N-(isothiazolo[4,3-b]pyridin-3-yl)-2-(1-methyl-2-oxabicyclo[2.1.1]hexan-4-yl)imidazo[1,2-a]pyrimidine-6-carboxamide]
IC50: 0.0018 µM

COc1ncccc1NC(=O)c1cn2cc(C34CCC(C)(C3)OC4)nc2c(OC(C)C)n1 (stereo not shown) [Example 239]
IC50: 0.0008 µM

CCOc1nc(C(=O)Nc2cccnc2OC)cn2cc([C@@H]3CCOC3)nc12 (single isomer, unassigned) [Example 599]
IC50: 0.0056 µM

CC(C)Oc1cc2nc(C34COC(C)(C3)C4)cn2cc1C(=O)Nc1cc2ccccn2n1 [Example 298, 7-Isopropoxy-2-(1-methyl-2-oxabicyclo[2.1.1]hexan-4-yl)-N-(pyrazolo[1,5-a]pyridin-2-yl)imidazo[1,2-a]pyridine-6-carboxamide trifluoroacetate]
IC50 [1]: 0.063 µM

CC12CC(c3cn4cc(C(=O)Nc5cccc(C(F)F)n5)nc(OCC(F)F)c4n3)(CO1)C2 [Example 344, 8-(2,2-Difluoroethoxy)-N-(6-(difluoromethyl)pyridin-2-yl)-2-(1-methyl-2-oxabicyclo[2.1.1]hexan-4-yl)imidazo[1,2-a]pyrazine-6-carboxamide]
IC50: 0.0034 µM

CC(C)Oc1nc2nc(C34COC(C)(C3)C4)cn2cc1C(=O)Nc1ccn(C2CCC2)n1 [Example 364, N-(1-cyclobutyl-1H-pyrazol-3-yl)-7-isopropoxy-2-(1-methyl-2-oxabicyclo[2.1.1]hexan-4-yl)imidazo[1,2-a]pyrimidine-6-carboxamide trifluoroacetate]
IC50 [1]: 0.0057 µM

CC(C)Oc1nc2nc(C34COC(C)(C3)C4)cn2cc1C(=O)Nc1cccc2ncnn12 [Example 410, N-([1,2,4]triazolo[1,5-a]pyridin-5-yl)-7-isopropoxy-2-(1-methyl-2-oxabicyclo[2.1.1]hexan-4-yl)imidazo[1,2-a]pyrimidine-6-carboxamide]
IC50: 0.0002 µM

CC(C)Oc1cc2nc(C34COC(C)(C3)C4)cn2cc1C(=O)Nc1ccnc(C(F)F)c1 [Example 258, N-(2-(difluoromethyl)pyridin-4-yl)-7-isopropoxy-2-(1-methyl-2-oxabicyclo[2.1.1]hexan-4-yl)imidazo[1,2-a]pyridine-6-carboxamide]
IC50: 0.0596 µM

CCOc1nc(C(=O)Nc2cccc(C3CC3)n2)cn2cc(C34COC(C)(C3)C4)nc12 [Example 493, N-(6-cyclopropylpyridin-2-yl)-8-ethoxy-2-(1-methyl-2-oxabicyclo[2.1.1]hexan-4-yl)imidazo[1,2-a]pyrazine-6-carboxamide]
IC50: 0.0032 µM

CC(C)Oc1cc2nc(C34COC(C)(C3)C4)cn2cc1C(=O)Nc1cc(C#N)cn(C)c1=O [Example 262, N-(5-cyano-1-methyl-2-oxo-1,2-dihydropyridin-3-yl)-7-isopropoxy-2-(1-methyl-2-oxabicyclo[2.1.1]hexan-4-yl)imidazo[1,2-a]pyridine-6-carboxamide]
IC50: 0.028 µM

CC(C)Oc1nc2nc(C34CCOC(C)(C3)C4)cn2cc1C(=O)Nc1cccc(C(F)(F)F)n1 [Example 237]
IC50: 0.0003 µM

CCn1ccc(NC(=O)c2cn3cc(C45CCC(C)(C4)OC5)nc3cc2OC2CCC2)n1 (stereo not shown) [Example 533, 7-Cyclobutoxy-N-(1-ethyl-1H-pyrazol-3-yl)-2-(1-methyl-2-oxabicyclo[2.2.1]heptan-4-yl)imidazo[1,2-a]pyridine-6-carboxamide]
IC50: 0.0037 µM

CC(C)Oc1cc2nc([C@]34CC[C@](C)(C3)OC4)cn2cc1C(=O)Nc1ccn(C)n1 (single isomer, unassigned) [Example 607]
IC50: 0.0031 µM

CC(C)Oc1nc2nc([C@@]34CC[C@@](C)(C3)OC4)cn2cc1C(=O)Nc1cccn(C)c1=O (single isomer, unassigned) [Example 652]
IC50: 0.0005 µM

COc1cccc(NC(=O)c2cn3cc(C4CC4)nc3cc2OC2CCC2)n1 [Example 463, 7-Cyclobutoxy-2-cyclopropyl-N-(6-methoxypyridin-2-yl)imidazo[1,2-a]pyridine-6-carboxamide]
IC50: 0.0057 µM

CC(C)Oc1cc2nc(C3C4COCC43)cn2cc1C(=O)Nc1cccc(C(F)F)n1 (stereo not shown) [Example 253, 2-(3-Oxabicyclo[3.1.0]hexan-6-yl)-N-(6-(difluoromethyl)pyridin-2-yl)-7-isopropoxyimidazo[1,2-a]pyridine-6-carboxamide hydrochloride]
IC50 [1]: 0.0004 µM

CC(C)Oc1c(C(=O)Nc2cccc(C(F)(F)F)n2)cn2cc(C34COC(C)(C3)C4)nc2c1F [Example 230, 8-Fluoro-7-isopropoxy-2-(1-methyl-2-oxabicyclo[2.1.1]hexan-4-yl)-N-(6-(trifluoromethyl)pyridin-2-yl)imidazo[1,2-a]pyridine-6-carboxamide trifluoroacetate]
IC50 [1]: 0.003 µM

Cc1cccc(NC(=O)c2cn3cc(C45COC(C)(C4)C5)nc3nc2OC(C)C)n1 [Example 355, 7-Isopropoxy-2-(1-methyl-2-oxabicyclo[2.1.1]hexan-4-yl)-N-(6-methylpyridin-2-yl)imidazo[1,2-a]pyrimidine-6-carboxamide]
IC50: 0.0016 µM

COc1nc(C(=O)Nc2cccc(C(F)(F)F)n2)cn2cc(C[C@H]3CCOC3)nc12 (single isomer, unassigned) [Example 71]
IC50: 0.0311 µM

Cn1ccc(NC(=O)c2cn3cc(C45COC(C)(C4)C5)nc3cc2OC2CC3(CC3)C2)n1 [Example 550]
IC50: 0.002 µM

Cn1cccc(NC(=O)c2cn3cc(C45CCC(C)(C4)OC5)nc3cc2OC2CCCC2)c1=O (stereo not shown) [Example 558]
IC50: 0.0011 µM

CC(C)Oc1cc2nc(C34CCC(C)(C3)OC4)cn2cc1C(=O)Nc1ccccn1 (stereo not shown) [Example 518, 7-Isopropoxy-2-(1-methyl-2-oxabicyclo[2.2.1]heptan-4-yl)-N-(pyridin-2-yl)imidazo[1,2-a]pyridine-6-carboxamide]
IC50: 0.004 µM

Cc1ccn2ncc(NC(=O)c3cn4cc(C56COC(C)(C5)C6)nc4cc3OC(C)C)c2n1 [Example 263, 7-Isopropoxy-2-(1-methyl-2-oxabicyclo[2.1.1]hexan-4-yl)-N-(5-methylpyrazolo[1,5-a]pyrimidin-3-yl)imidazo[1,2-a]pyridine-6-carboxamide]
IC50: 0.0002 µM

CC(C)Oc1c(C(=O)Nc2cnn3cccnc23)cn2cc(C34COC(C)(C3)C4)nc2c1F [Example 302, 8-Fluoro-7-isopropoxy-2-(1-methyl-2-oxabicyclo[2.1.1]hexan-4-yl)-N-(pyrazolo[1,5-a]pyrimidin-3-yl)imidazo[1,2-a]pyridine-6-carboxamide]
IC50: 0.0077 µM

CC(C)Oc1nc(C(=O)Nc2ccn(C)n2)cn2cc(C34CCC(C)(CC3)OC4)nc12 [Example 429, 8-Isopropoxy-N-(1-methyl-1H-pyrazol-3-yl)-2-(1-methyl-2-oxabicyclo[2.2.2]octan-4-yl)imidazo[1,2-a]pyrazine-6-carboxamide]
IC50: 0.0018 µM

CC12CC(c3cn4cc(C(=O)Nc5cnn6cccnc56)c(OC5CC5)cc4n3)(CO1)C2 [Example 551]
IC50: 0.0019 µM

CCOc1cc2nc([C@@H]3CC3(F)F)cn2cc1C(=O)Nc1cccc(OC)n1 (single isomer, unassigned) [Example 69]
IC50: 0.0444 µM

CC12CC(c3cn4cc(C(=O)Nc5cccn(C(F)F)c5=O)c(OC5CCC5)cc4n3)(CO1)C2 [Example 442, 7-Cyclobutoxy-N-(1-(difluoromethyl)-2-oxo-1,2-dihydropyridin-3-yl)-2-(1-methyl-2-oxabicyclo[2.1.1]hexan-4-yl)imidazo[1,2-a]pyridine-6-carboxamide]
IC50: 0.0002 µM

COc1cc2nc(C3CCOCC3)cn2cc1C(=O)Nc1cccc(CO)n1 [Example 202]
IC50: 0.0137 µM

Cc1nc(C(=O)Nc2cccc(C(F)F)n2)cn2cc(C3CCOCC3)nc12 [Example 213]
IC50: 0.0607 µM

Cn1ccc(NC(=O)c2cn3cc([C@]45CC[C@](C)(C4)OC5)nc3cc2OC2CCCC2)n1 (single isomer, unassigned) [Example 633]
IC50: 0.0016 µM

CCOc1nc(C(=O)Nc2cccc(C(F)(F)F)c2)cn2cc(C34COC(C)(C3)C4)nc12 [Example 497, 8-Ethoxy-2-(1-methyl-2-oxabicyclo[2.1.1]hexan-4-yl)-N-(3-(trifluoromethyl)phenyl)imidazo[1,2-a]pyrazine-6-carboxamide]
IC50: 0.007 µM

CC(C)Oc1nc2nc(C34CCC(C3)OC4)cn2cc1C(=O)Nc1cnn2cccnc12 (stereo not shown) [Example 565, 2-(2-Oxabicyclo[2.2.1]heptan-4-yl)-7-isopropoxy-N-(pyrazolo[1,5-a]pyrimidin-3-yl)imidazo[1,2-a]pyrimidine-6-carboxamide]
IC50: 0.0005 µM

CC(C)Oc1nc2nc(C34COC(C)(C3)C4)cn2cc1C(=O)Nc1csc2nccnc12 [Example 380, 7-Isopropoxy-2-(1-methyl-2-oxabicyclo[2.1.1]hexan-4-yl)-N-(thieno[2,3-b]pyrazin-7-yl)imidazo[1,2-a]pyrimidine-6-carboxamide trifluoroacetate]
IC50 [1]: 0.0002 µM

COc1cc2nc(C3CCOCC3)cn2cc1C(=O)Nc1cccc(C)n1 [Example 116]
IC50: 0.0106 µM

CC(C)Oc1nc2nc(C34COC(C)(C3)C4)cn2cc1C(=O)Nc1cccc(N(C)C)n1 [Example 357, N-(6-(dimethylamino)pyridin-2-yl)-7-isopropoxy-2-(1-methyl-2-oxabicyclo[2.1.1]hexan-4-yl)imidazo[1,2-a]pyrimidine-6-carboxamide trifluoroacetate]
IC50 [1]: 0.0003 µM
